According to patent US8912144B2, “Method for treating stroke via administration of NEP1-40 and inosine” (Children's Medical Center Corporation, priority 2003, dated 2014):

System: corticospinal neurons (CSNs/CSMNs)
Experiment: Laser-capture microdissection and Illumina microarray gene expression in corticospinal neurons contralateral to stroke
Type: in vivo, rat
Procedure: In a separate group of animals (n=20), layer V pyramidal cells of the sensorimotor cortex were retrogradely labeled by injecting Alexa-Fluor-488-conjugated cholera toxin B subunit (CTB; 300 U/μl in sterile saline) into the cervical spinal cord. For this, animals were anesthetized with a combination of ketamine and Domitor (medetomidine) and a laminectomy was performed at the cervical level of the spinal cord (C2-C4). CTB was stereotaxically delivered into four sites lateral to the corticospinal tract. Injections (1.3 μl) were spaced 1 mm apart on the rostro-caudal axis, and were made 0.5 mm to the left and right of the midline. After allowing two weeks for transport of the tracer, we performed either sham surgery with no treatment (n=6) or stroke surgery combined with saline (n=3) or inosine (n=4) treatment as described above. Seven days later, animals were decapitated under transient gas anesthesia, brains were removed and rinsed in cold RPMI medium, and a tissue block containing the sensorimotor cortex was dissected and placed in OCT Tissue Tek Medium (Sakura Finetek USA Inc., CA) on dry ice within five minutes of death. Ten μm sections were cut onto precleaned Gold Seal RITE-ON glass slides (Gold Seal Prod-ucts, Portsmouth, N.H.), placed on dry ice, and rapidly stored at −80° C.
Slide-mounted sections were thawed and dehydrated in RNAse-free ethanol gradients and xylene. Retro-gradely labeled, fluorescent cortical pyramidal cells in the undamaged hemisphere were individually captured using the Arcturus VERITAS system. ≧500 cells were collected from each animal and stored in Arcturus extraction buffer at −80° C. Total RNA was extracted from cells using the Micro-to-Midi TotalRNA Purification System (Invitrogen, Carlsbad Calif.) and double-amplified using the TargetAmp 2-Round Aminoallyl-aRNA Amplification kit 1.0 (Epicentre, Madison, Wis.). Amplified RNA was checked for average fragment length using the Agilent RNA 6000 Nano LabChip kit (Agilent Technologies, Santa Clara, Calif.) and then biotinylated and hybridized (1 μg) on Illumina RatRef-12 Expression BeadChip arrays (Illumina, San Diego Calif.), querying the expression of >22,000 RefSeq-curated rat transcripts. Results were obtained from a total of 15 samples representing 6 untreated controls, 4 animals with stroke treated with saline and 5 animals with stroke treated with inosine. Slides were processed and scanned with Illumina BeadStation platform according to the manufacturer protocol.
Raw data was analyzed using Bioconductor packages (www.bioconductor.org, (Gentleman et al., 2004)). Low level quality-control analysis was performed using inter-array Pearson correlation and clustering based on variance. Two arrays (1 saline and 1 inosine-treated) were outliers and were excluded from the analysis. Data was normalized using quantile normalization, and analysis of differential expression was performed using a linear model fitting (LIMMA package, (Smyth, 2005). Differentially expressed genes were classified according to gene ontology using Bioconductor packages and online tools (DAVID, http://david.abcc.ncifcrf.gov/). Pathway analysis was carried out using Ingenuity Pathway Analysis (Ingenuity Systems, www.ingenuity.com).

OC[C@H]1O[C@@H](n2cnc3c(O)ncnc32)[C@H](O)[C@@H]1O [inosine]
Fold-Induction Stroke, ino vs. cntrl (A2m ILMN_70335): 4.03
Signal Intensity Inosine (A2m ILMN_70335): 1924
Fold-Induction Stroke, ino vs. cntrl (ADRP ILMN_47969): 4.12
Signal Intensity Inosine (ADRP ILMN_47969): 3202
Fold-Induction Stroke, ino vs. cntrl (Adn ILMN_58846): 4.53
Signal Intensity Inosine (Adn ILMN_58846): 2287
Fold-Induction Stroke, ino vs. cntrl (Aif1 ILMN_47707): 2.67
Signal Intensity Inosine (Aif1 ILMN_47707): 4301
Fold-Induction Stroke, ino vs. cntrl (Arhgdib ILMN_66176): 4.08
Signal Intensity Inosine (Arhgdib ILMN_66176): 3057
Fold-Induction Stroke, ino vs. cntrl (Arpc1b ILMN_69642): 2.61
Signal Intensity Inosine (Arpc1b ILMN_69642): 758
Fold-Induction Stroke, ino vs. cntrl (Asb2 ILMN_50991): 3.27
Signal Intensity Inosine (Asb2 ILMN_50991): 615
Fold-Induction Stroke, ino vs. cntrl (Aurkc ILMN_69140): 1.43
Signal Intensity Inosine (Aurkc ILMN_69140): 1172
Fold-Induction Stroke, ino vs. cntrl (Bcl2a1 ILMN_62703): 3.34
Signal Intensity Inosine (Bcl2a1 ILMN_62703): 613
Fold-Induction Stroke, ino vs. cntrl (Btf3 ILMN_62809): 0.43
Signal Intensity Inosine (Btf3 ILMN_62809): 787
Fold-Induction Stroke, ino vs. cntrl (C1qb ILMN_61448): 2.76
Signal Intensity Inosine (C1qb ILMN_61448): 1832
Fold-Induction Stroke, ino vs. cntrl (C1qg ILMN_55502): 3.66
Signal Intensity Inosine (C1qg ILMN_55502): 2499
Fold-Induction Stroke, ino vs. cntrl (C2 ILMN_63608): 3.12
Signal Intensity Inosine (C2 ILMN_63608): 4113
Fold-Induction Stroke, ino vs. cntrl (C4-2 ILMN_59751): 2.95
Signal Intensity Inosine (C4-2 ILMN_59751): 2409
Fold-Induction Stroke, ino vs. cntrl (Card9 ILMN_62382): 2.83
Signal Intensity Inosine (Card9 ILMN_62382): 865
Fold-Induction Stroke, ino vs. cntrl (Cd68 ILMN_60003): 3.88
Signal Intensity Inosine (Cd68 ILMN_60003): 2117
Fold-Induction Stroke, ino vs. cntrl (Cd151 ILMN_62725): 1.50
Signal Intensity Inosine (Cd151 ILMN_62725): 1171
Fold-Induction Stroke, ino vs. cntrl (Cdk5rap2 ILMN_57761): 1.68
Signal Intensity Inosine (Cdk5rap2 ILMN_57761): 1377
Fold-Induction Stroke, ino vs. cntrl (Chd4 ILMN_55276): 1.26
Signal Intensity Inosine (Chd4 ILMN_55276): 7413
Fold-Induction Stroke, ino vs. cntrl (Cml1 ILMN_50957): 1.08
Signal Intensity Inosine (Cml1 ILMN_50957): 275
Fold-Induction Stroke, ino vs. cntrl (Comt ILMN_48330): 1.09
Signal Intensity Inosine (Comt ILMN_48330): 400
Fold-Induction Stroke, ino vs. cntrl (Crabp2 ILMN_48069): 2.62
Signal Intensity Inosine (Crabp2 ILMN_48069): 1006
Fold-Induction Stroke, ino vs. cntrl (Cyba ILMN_65212): 4.04
Signal Intensity Inosine (Cyba ILMN_65212): 2617
Fold-Induction Stroke, ino vs. cntrl (Dhrsx ILMN_56966): 1.38
Signal Intensity Inosine (Dhrsx ILMN_56966): 8022
Fold-Induction Stroke, ino vs. cntrl (Dtx2 ILMN_65350): 2.24
Signal Intensity Inosine (Dtx2 ILMN_65350): 1792
Fold-Induction Stroke, ino vs. cntrl (Esd ILMN_57701): 0.44
Signal Intensity Inosine (Esd ILMN_57701): 1416
Fold-Induction Stroke, ino vs. cntrl (Ftl1 ILMN_62100): 2.24
Signal Intensity Inosine (Ftl1 ILMN_62100): 11718
Fold-Induction Stroke, ino vs. cntrl (Fxr2h ILMN_59638): 1.64
Signal Intensity Inosine (Fxr2h ILMN_59638): 638
Fold-Induction Stroke, ino vs. cntrl (Gfap ILMN_68224): 2.88
Signal Intensity Inosine (Gfap ILMN_68224): 23099
Fold-induction CSMNs: Aif1 (ILMN_47707, over and above inosine's effect of decreasing stroke-induced changes): 2.33 fold
Fold-Induction Stroke, ino vs. cntrl, Uxs1 (ILMN_47889): 0.66
Signal Intensity, Uxs1 (ILMN_47889, inosine after stroke): 2868
Fold-Induction Stroke, ino vs. cntrl, LOC366193 (ILMN_48004): 0.67
Signal Intensity, LOC366193 (ILMN_48004, inosine after stroke): 2396
Fold-induction CSMNs: Crabp2 (ILMN_48069, over and above inosine's effect of decreasing stroke-induced changes): 2.12 fold
Fold-induction CSMNs: Ifitm3 (ILMN_48088, over and above inosine's effect of decreasing stroke-induced changes): 2.74 fold
Fold-Induction Stroke, ino vs. cntrl, Ap3s1 (ILMN_48320): 0.55
Signal Intensity, Ap3s1 (ILMN_48320, inosine after stroke): 285
Fold-Induction Stroke, ino vs. cntrl, LOC499423 (ILMN_48323): 0.53
Signal Intensity, LOC499423 (ILMN_48323, inosine after stroke): 1043
Fold-Induction Stroke, ino vs. cntrl, Wee1 (ILMN_48447): 0.83
Signal Intensity, Wee1 (ILMN_48447, inosine after stroke): 367
Fold-Induction Stroke, ino vs. cntrl, Sfrs10 (ILMN_48507): 0.72
Signal Intensity, Sfrs10 (ILMN_48507, inosine after stroke): 2745
Fold-Induction Stroke, ino vs. cntrl, Scarb2 (ILMN_48587): 0.71
Signal Intensity, Scarb2 (ILMN_48587, inosine after stroke): 569
Fold-Induction Stroke, ino vs. cntrl, Sec6l1 (ILMN_48688): 0.84
Signal Intensity, Sec6l1 (ILMN_48688, inosine after stroke): 587
Fold-Induction Stroke, ino vs. cntrl, Ube4a (ILMN_49300): 0.58
Signal Intensity, Ube4a (ILMN_49300, inosine after stroke): 1509
Fold-Induction Stroke, ino vs. cntrl, LOC501195 (ILMN_49366): 0.77
Signal Intensity, LOC501195 (ILMN_49366, inosine after stroke): 1460
Fold-Induction Stroke, ino vs. cntrl, Kcnc2 (ILMN_49569): 0.73
Signal Intensity, Kcnc2 (ILMN_49569, inosine after stroke): 4642
Fold-Induction Stroke, ino vs. cntrl, Arfrp1 (ILMN_49739): 0.93
Signal Intensity, Arfrp1 (ILMN_49739, inosine after stroke): 1014
Fold-Induction Stroke, ino vs. cntrl, Dmp1 (ILMN_49819): 0.38
Signal Intensity, Dmp1 (ILMN_49819, inosine after stroke): 267
Fold-Induction Stroke, ino vs. cntrl, Ralbp1 (ILMN_49884): 0.75
Signal Intensity, Ralbp1 (ILMN_49884, inosine after stroke): 1553
Fold-Induction Stroke, ino vs. cntrl, Snx2 (ILMN_50221): 0.66
Signal Intensity, Snx2 (ILMN_50221, inosine after stroke): 1681
Fold-Induction Stroke, ino vs. cntrl, Rpn2 (ILMN_50467): 0.71
Signal Intensity, Rpn2 (ILMN_50467, inosine after stroke): 835
Fold-Induction Stroke, ino vs. cntrl, RAMP4 (ILMN_50573): 0.75
Signal Intensity, RAMP4 (ILMN_50573, inosine after stroke): 544
Fold-Induction Stroke, ino vs. cntrl, Cdc37l (ILMN_50686): 0.83
Signal Intensity, Cdc37l (ILMN_50686, inosine after stroke): 625
Fold-Induction Stroke, ino vs. cntrl, LOC498489 (ILMN_50922): 0.49
Signal Intensity, LOC498489 (ILMN_50922, inosine after stroke): 603
Fold-Induction Stroke, ino vs. cntrl, Ube2m (ILMN_50967): 0.59
Signal Intensity, Ube2m (ILMN_50967, inosine after stroke): 332
Fold-Induction Stroke, ino vs. cntrl, LOC499428 (ILMN_51108): 0.50
Signal Intensity, LOC499428 (ILMN_51108, inosine after stroke): 678
Fold-Induction, complement cascade gene C3 (ILMN_51249, LCM-captured CSMNs contralateral a stroke): 2.17 fold
Fold-induction CSMNs: LOC305633, (P) Antxr2 protein (ILMN_51277, over and above inosine's effect of decreasing stroke-induced changes): 3.13 fold
Fold-Induction Stroke, ino vs. cntrl, Ik (ILMN_51588): 0.83
Signal Intensity, Ik (ILMN_51588, inosine after stroke): 417
Fold-Induction Stroke, ino vs. cntrl, LOC499767 (ILMN_51716): 0.64
Signal Intensity, LOC499767 (ILMN_51716, inosine after stroke): 1723
Fold-Induction Stroke, ino vs. cntrl, LOC497777 (ILMN_51717): 0.58
Signal Intensity, LOC497777 (ILMN_51717, inosine after stroke): 577
Fold-Induction Stroke, ino vs. cntrl, Tspan3 (ILMN_51868): 0.47
Signal Intensity, Tspan3 (ILMN_51868, inosine after stroke): 3842
Fold-Induction Stroke, ino vs. cntrl, LOC360807 (ILMN_51947): 0.50
Signal Intensity, LOC360807 (ILMN_51947, inosine after stroke): 689
Fold-Induction Stroke, ino vs. cntrl, LOC498931 (ILMN_51968): 0.54
Signal Intensity, LOC498931 (ILMN_51968, inosine after stroke): 554
Fold-Induction Stroke, ino vs. cntrl, LOC501619 (ILMN_51972): 0.59
Signal Intensity, LOC501619 (ILMN_51972, inosine after stroke): 416
Fold-Induction Stroke, ino vs. cntrl, Scd2 (ILMN_52257): 0.42
Signal Intensity, Scd2 (ILMN_52257, inosine after stroke): 3009
Fold-Induction Stroke, ino vs. cntrl, LOC317508 (ILMN_52577): 0.58
Signal Intensity, LOC317508 (ILMN_52577, inosine after stroke): 493
Fold-Induction Stroke, ino vs. cntrl, Nedd9 (ILMN_52827): 0.73
Signal Intensity, Nedd9 (ILMN_52827, inosine after stroke): 550
Fold-Induction Stroke, ino vs. cntrl, Atp6v1h (ILMN_52968): 0.62
Signal Intensity, Atp6v1h (ILMN_52968, inosine after stroke): 525
Fold-Induction Stroke, ino vs. cntrl, MGC94339 (ILMN_52985): 0.70
Signal Intensity, MGC94339 (ILMN_52985, inosine after stroke): 547
Fold-Induction Stroke, ino vs. cntrl, Ube2e3 (ILMN_53046): 0.61
Signal Intensity, Ube2e3 (ILMN_53046, inosine after stroke): 434
Fold-Induction Stroke, ino vs. cntrl, Arpc3 (ILMN_53076): 0.68
Signal Intensity, Arpc3 (ILMN_53076, inosine after stroke): 423
Fold-induction CSMNs: Irf1 (ILMN_53085, over and above inosine's effect of decreasing stroke-induced changes): 1.83 fold
Fold-Induction Stroke, ino vs. cntrl, LOC309362 (ILMN_53195): 1.02
Signal Intensity, LOC309362 (ILMN_53195, inosine after stroke): 498
Fold-Induction Stroke, ino vs. cntrl, Hat1 (ILMN_53256): 0.69
Signal Intensity, Hat1 (ILMN_53256, inosine after stroke): 362
Fold-Induction Stroke, ino vs. cntrl, LOC499978 (ILMN_53292): 0.72
Signal Intensity, LOC499978 (ILMN_53292, inosine after stroke): 970
Fold-induction CSMNs: LOC498335, (P) Small inducible cytokine B13 precursor (CXCL13) (ILMN_53325, over and above inosine's effect of decreasing stroke-induced changes): 11.42 fold
Fold-induction CSMNs: Mt1a (Metallothionein) (ILMN_53575, over and above inosine's effect of decreasing stroke-induced changes): 2.69 fold
Fold-Induction Stroke, ino vs. cntrl, Cnbp1 (ILMN_53694): 0.76
Signal Intensity, Cnbp1 (ILMN_53694, inosine after stroke): 4491
Fold-Induction Stroke, ino vs. cntrl, MGC94053 (ILMN_53763): 0.59
